pIC50: −log10 of the molar value. Where two headings read alike, the source gives them in different places.
What was measured:
Format in all cases: biochemical
[1] = target: full length recombinant Pim-1 (Homo sapiens (Human), UniProt P11309); test: Pim enzyme assay (HTRF, phosphorylation of biotinylated-BAD (S112) peptide), Pim-1; conditions: Pim-1 enzyme assay; read-out: Pim_1_IC50
[2] = target: full length recombinant Pim-2 (Homo sapiens (Human), UniProt Q9P1W9); test: Pim enzyme assay (HTRF, phosphorylation of biotinylated-BAD (S112) peptide), Pim-2; conditions: read-out: Pim2_IC50
[3] = target: full length recombinant Pim-3 (Homo sapiens (Human), UniProt Q86V86); test: Pim enzyme assay (HTRF, phosphorylation of biotinylated-BAD (S112) peptide), Pim-3; conditions: read-out: Pim3 IC50
Text: Pim-3 was purchased from Millipore (UK).
The phosphorylation of biotinylated-BAD (S112) peptide by full length recombinant Pim-1, Pim-2, or Pim-3 protein was detected with streptavidin:Allophycocyanin (APC) conjugate and a europium (Eu) labeled antibody directed against phosphorylated-BAD (S112). […] The fluorescence is directly proportional to the amount of phosphorylated BAD peptide present in the reaction.
A reference compound was included on each assay plate in order to validate that plate; on one plate of every assay run, two additional reference compounds were included.
The final buffer conditions were as follows: 60 mM Hepes, pH 7.0, 0.05% BSA, 2 mM DTT. Incubations were carried out at RT (22° C.) for 2 h for Pim-1, 1 h and 30 min for Pim-3, and 45 min for Pim-2. The reaction was then stopped by the addition of 3 mM EDTA, and fluorescence was measured by an HTRF® Rubystar microplate reader. For each plate, percent of control (POC) values were calculated for each well. Values for the IC50 IP were estimated using a standard 4-parameter logistic model.

full length recombinant Pim-2, sequence (Q9P1W9 whole entry): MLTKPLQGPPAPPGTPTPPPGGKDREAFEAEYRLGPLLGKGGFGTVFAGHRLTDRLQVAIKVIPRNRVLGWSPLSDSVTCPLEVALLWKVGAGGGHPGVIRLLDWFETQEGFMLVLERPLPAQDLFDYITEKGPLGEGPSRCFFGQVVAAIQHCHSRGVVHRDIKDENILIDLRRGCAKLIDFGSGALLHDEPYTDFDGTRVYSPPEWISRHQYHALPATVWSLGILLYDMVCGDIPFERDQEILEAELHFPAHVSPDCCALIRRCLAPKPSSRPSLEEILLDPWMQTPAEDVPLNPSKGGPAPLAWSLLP
full length recombinant Pim-1, sequence (P11309 whole entry): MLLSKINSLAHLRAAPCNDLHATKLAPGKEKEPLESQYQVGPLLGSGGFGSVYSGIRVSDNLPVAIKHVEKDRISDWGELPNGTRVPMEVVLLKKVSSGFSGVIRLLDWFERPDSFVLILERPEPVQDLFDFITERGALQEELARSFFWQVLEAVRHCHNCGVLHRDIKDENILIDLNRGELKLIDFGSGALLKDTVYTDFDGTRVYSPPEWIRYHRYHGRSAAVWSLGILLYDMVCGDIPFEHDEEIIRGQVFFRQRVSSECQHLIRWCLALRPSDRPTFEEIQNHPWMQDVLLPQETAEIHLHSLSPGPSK

Row | Compound | pIC50 [1] | pIC50 ([2]; Pim-2 enzyme assay) | pIC50 ([3]; Pim-3 enzyme assay) | pIC50 [2] | pIC50 [3]
1 | CNc1nnc(-c2ccc3[nH]cc(-c4cccnc4)c3c2)s1 [Example 220, N-methyl-5-(3-(3-pyridinyl)-1H-indol-5-yl)-1,3,4-thiadiazol-2-amine] | 6.20 | 5.91 | 6.56 |  | 
2 | CCOc1cnc(-c2c[nH]c3ccc(-c4nnc(N)o4)cc23)cn1 [Example 86, 5-(3-(5-ethoxy-2-pyrazinyl)-1H-indol-5-yl)-1,3,4-oxadiazol-2-amine] | 6.55 | 6.49 | 6.91 |  | 
3 | CC(C)Oc1cc(F)cc(-c2c[nH]c3ccc(-c4nnc(N)o4)cc23)c1 [Example 79, 5-(3-(3-fluoro-5-(1-methylethoxy)phenyl)-1H-indol-5-yl)-1,3,4-oxadiazol-2-amine] | 6.81 | 6.73 | 7.07 |  | 
4 | CNc1nnc(-c2ccc3[nH]cc(-c4cccc(C(F)(F)F)c4)c3c2)s1 [Example 224, N-methyl-5-(3-(3-(trifluoromethyl)phenyl)-1H-indol-5-yl)-1,3,4-thiadiazol-2-amine] | 5.72 | < 5.52 | 6.68 |  | 
5 | CCCCOc1cnc(-c2c[nH]c3ccc(-c4nnc(N)s4)cc23)cn1 [Example 193, 5-(3-(5-butoxy-2-pyrazinyl)-1H-indol-5-yl)-1,3,4-thiadiazol-2-amine] | 6.03 | 5.81 | 6.41 |  | 
6 | Nc1nnc(-c2ccc3[nH]cc(-c4cccc(O)n4)c3c2)s1 [Example 196, 6-(5-(5-amino-1,3,4-thiadiazol-2-yl)-1H-indol-3-yl)-2-pyridinol] | 5.68 | < 5.52 | 6.04 |  | 
7 | CC(Nc1nnc(-c2ccc3[nH]cc(-c4ncccn4)c3c2)o1)c1ccccc1 (stereo not drawn) [Example 266, N-(1-phenylethyl)-5-(3-(2-pyrimidinyl)-1H-indol-5-yl)-1,3,4-oxadiazol-2-amine] | 7.19 | 6.64 | 7.36 |  | 
8 | Cc1ccccc1-c1ccnc(-c2c[nH]c3ccc(-c4nnc(N)o4)cc23)n1 [Example 124, 5-(3-(4-(2-methylphenyl)-2-pyrimidinyl)-1H-indol-5-yl)-1,3,4-oxadiazol-2-amine] | 7.55 | 7.48 | 7.76 |  | 
9 | CNc1nnc(-c2ccc3[nH]cc(-c4cccc(OC)c4)c3c2)s1 [Example 226, 5-(3-(3-methoxyphenyl)-1H-indol-5-yl)-N-methyl-1,3,4-thiadiazol-2-amine] | 5.61 | < 5.52 | 6.45 |  | 
10 | Nc1nnc(-c2ccc3[nH]cc(-c4cccc(F)n4)c3c2)s1 [Example 209, 5-(3-(6-fluoro-2-pyridinyl)-1H-indol-5-yl)-1,3,4-thiadiazol-2-amine] | 6.15 | 6.25 | 6.83 |  | 
11 | CNc1nnc(-c2ccc3[nH]cc(-c4csc(-c5ccoc5)n4)c3c2)s1 [Example 240, 5-(3-(2-(3-furanyl)-1,3-thiazol-4-yl)-1H-indol-5-yl)-N-methyl-1,3,4-thiadiazol-2-amine] | 5.82 | 5.58 | 6.39 |  | 
12 | Nc1nnc(-c2ccc3[nH]cc(-c4cncc(Cl)n4)c3c2)o1 [Example 102, 5-(3-(6-chloro-2-pyrazinyl)-1H-indol-5-yl)-1,3,4-oxadiazol-2-amine] | 6.80 | 6.84 | 7.53 |  | 
13 | N#Cc1cccc(-c2c[nH]c3ccc(-c4nnc(N)s4)cc23)n1 [Example 183, 6-(5-(5-amino-1,3,4-thiadiazol-2-yl)-1H-indol-3-yl)-2-pyridinecarbonitrile] | 6.81 | 6.76 | 7.32 |  | 
14 | COc1cncc(-c2c[nH]c3ccc(-c4nnc(N)o4)nc23)c1 [Example 10, 5-(3-(5-methoxypyridin-3-yl)-1H-pyrrolo[3,2-b]pyridin-5-yl)-1,3,4-oxadiazol-2-amine] | 5.95 | 6.24 | 6.19 |  | 
15 | COC[C@@H]1CCCN1c1ccnc(-c2c[nH]c3ccc(-c4nnc(N)o4)cc23)n1 [Example 109, 5-(3-(4-((2S)-2-(methoxymethyl)-1-pyrrolidinyl)-2-pyrimidinyl)-1H-indol-5-yl)-1,3,4-oxadiazol-2-amine] | 7.49 | 7.57 | 7.89 |  | 
16 | NC1CCN(c2nnc(-c3ccc4[nH]cc(-c5ccccc5F)c4c3)s2)CC1 [Example 144, 1-(5-(3-(2-fluorophenyl)-1H-indol-5-yl)-1,3,4-thiadiazol-2-yl)-4-piperidinamine] | 6.57 | 5.77 | 6.79 |  | 

Row | Compound | pIC50 [1] | pIC50 ([2]; Pim-2 enzyme assay) | pIC50 ([3]; Pim-3 enzyme assay) | pIC50 [2] | pIC50 [3]
17 | Nc1nnc(-c2ccc3[nH]cc(-c4nccc(C(F)(F)F)n4)c3c2)o1 [Example 96, 5-(3-(4-(trifluoromethyl)-2-pyrimidinyl)-1H-indol-5-yl)-1,3,4-oxadiazol-2-amine] | 7.17 | 7.50 | 7.92 |  | 
18 | COCC(=O)Nc1cccc(CNc2nnc(-c3ccc4[nH]cc(-c5ccccc5F)c4c3)s2)c1 [Example 146, N-(3-(((5-(3-(2-fluorophenyl)-1H-indol-5-yl)-1,3,4-thiadiazol-2-yl)amino)methyl)phenyl)-2-methoxyacetamide] | 6.44 | 5.60 | 6.27 |  | 
19 | Oc1nnc(-c2ccc3[nH]cc(-c4ccc(F)cc4F)c3c2)s1 [Example 26, 5-(3-(2,4-difluorophenyl)-1H-indol-5-yl)-1,3,4-thiadiazol-2-ol] | 5.70 | < 5.52 | 6.10 |  | 
20 | CNc1nnc(-c2ccc3[nH]cc(-c4cccc(OC(F)(F)F)c4)c3c2)s1 [Example 225, N-methyl-5-(3-(3-(trifluoromethoxy)phenyl)-1H-indol-5-yl)-1,3,4-thiadiazol-2-amine] | 5.63 | < 5.52 | 6.38 |  | 
21 | Cc1[nH]c2ccc(CNc3nnc(-c4ccc5[nH]cc(-c6ccc(F)cc6F)c5c4)s3)cc2c1C [Example 147, 5-(3-(2,4-difluorophenyl)-1H-indol-5-yl)-N-((2,3-dimethyl-1H-indol-5-yl)methyl)-1,3,4-thiadiazol-2-amine] | 6.29 | < 5.52 | 6.20 |  | 
22 | c1cc(-c2nnc(-c3ccc4[nH]cc(-c5cncc(C6CC6)n5)c4c3)o2)[nH]n1 [Example 39, 2-(3-(6-Cyclopropylpyrazin-2-yl)-1H-indol-5-yl)-5-(1H-pyrazol-5-yl)-1,3,4-oxadiazole 2,2,2-trifluoroacetate] | 7.29 |  |  | 6.80 | 7.70
23 | Brc1nnc(-c2ccc3[nH]cc(-c4cccc(N5CCOCC5)n4)c3c2)s1 [Example 27, 4-(6-(5-(5-bromo-1,3,4-thiadiazol-2-yl)-1H-indol-3-yl)pyridin-2-yl)morpholine] | 5.88 | < 5.52 | 6.40 |  | 
24 | Nc1cccc(-c2c[nH]c3ccc(-c4nnc(N)s4)cc23)n1 [Example 190, 6-(5-(5-amino-1,3,4-thiadiazol-2-yl)-1H-indol-3-yl)-2-pyridinamine] | 6.15 | 6.01 | 6.73 |  | 
25 | CNc1nnc(-c2ccc3[nH]cc(-c4ccncc4)c3c2)s1 [Example 219, N-methyl-5-(3-(4-pyridinyl)-1H-indol-5-yl)-1,3,4-thiadiazol-2-amine] | 6.26 | 6.16 | 6.69 |  | 
26 | c1ccc(-c2nnc(-c3ccc4[nH]cc(-c5nccc(C6CC6)n5)c4c3)o2)cc1 [Example 255, 3-(4-cyclopropyl-2-pyrimidinyl)-5-(5-phenyl-1,3,4-oxadiazol-2-yl)-1H-indole] | 6.49 | 6.17 | 6.91 |  | 
27 | CC(=O)Nc1ccc(CNc2nnc(-c3ccc4[nH]cc(-c5ccc(F)cc5F)c4c3)s2)cc1 [Example 148, N-(4-(((5-(3-(2,4-difluorophenyl)-1H-indol-5-yl)-1,3,4-thiadiazol-2-yl)amino)methyl)phenyl)acetamide] | 6.11 | < 5.52 | 5.90 |  | 
28 | Nc1nnc(-c2ccc3[nH]cc(-c4ccccc4F)c3c2)o1 [Example 84, 5-(3-(2-fluorophenyl)-1H-indol-5-yl)-1,3,4-oxadiazol-2-amine] | 7.03 | 6.85 | 7.58 |  | 
29 | CC(C)(Nc1nnc(-c2ccc3[nH]cc(-c4cncc(C5CC5)n4)c3c2)o1)c1ccccc1 [Example 50, 5-(3-(6-cyclopropylpyrazin-2-yl)-1H-indol-5-yl)-N-(2-phenylpropan-2-yl)-1,3,4-oxadiazol-2-amine] | 7.24 | 6.52 |  |  | 7.84
30 | CNc1nnc(-c2ccc3[nH]cc(-c4c(F)cccc4F)c3c2)s1 [Example 237, 5-(3-(2,6-difluorophenyl)-1H-indol-5-yl)-N-methyl-1,3,4-thiadiazol-2-amine] | 6.27 | 5.91 | 6.64 |  | 
31 | COc1ccc(CNc2nnc(-c3ccc4[nH]cc(-c5cncc(C6CC6)n5)c4c3)o2)cc1 [Example 36, 5-(3-(6-Cyclopropylpyrazin-2-yl)-1H-indol-5-yl)-N-(4-methoxybenzyl)-1,3,4-oxadiazol-2-amine 2,2,2-trifluoroacetate] | 7.37 | 6.67 | 7.94 |  | 

From US9321756B2, “Azole compounds as PIM inhibitors” (priority 2011, dated 2016)
